Laboratory results: US20080305111A1, “Anti-C35 antibodies for treating cancer” (VACCINEX, INC., priority 2006, published 2008)
Like-named read-outs stand apart in the source and are kept apart here.

Assays:
[1] = tested on: 21MT1 tumor cells; experiment: C35 surface staining following drug induced apoptosis (flow cytometry); type: cell-based
Description: 24 hours following treatment with 0.5 uM Taxol™, 21MT1 tumor cells were stained with annexin V-FITC, propidium iodide, and with either 100 ng anti-C35 antibody 1F2 (dark line) or isotype control (grey fill) antibody. Both antibodies were directly conjugated to Alexa-647. Histograms were gated on the cells undergoing apoptosis (annexinV positive/PI negative). Antibodies were pre-incubated with PAB buffer (FIG. 3A), 100-fold molar excess recombinant C35 protein (FIG. 3B), or 100-fold molar excess β-galactosidase protein (FIG. 3C).
A line of continuously growing breast tumor cells that express the C35 tumor antigen was either treated with 6 ug/ml mitomycin C or left untreated. After continued in vitro culture for 48 hours to allow apoptosis to develop, cells were harvested, washed and stained with 50 ng of 1F2 monoclonal anti-C35 antibody or a mouse IgG antibody control each conjugated to the fluorescent dye Alexa 647. Following 50 minutes incubation at 25° C., cells were stained with Annexin V and propidium iodide (PI) using a standard commercial kit (Pharmingen). Cells were analyzed for staining with Annexin V, propidium iodide and Alexa 647 by flow cytometry employing standard protocols.

[2] = tested on: rabbit anti-human C35 polyclonal antibody; experiment: ELISA of rabbit C35 immune serum on plates coated with C35 15-mer peptides; type: binding
[3] = Toxicity of chemotherapy, radioimmunotherapy and combination therapy by weight loss (FIG. 8); set-up: species or system Swiss nude mice; conditions: Swiss nude, mouse, in vivo, intravenous; together with Leucovorin at 120 mg/kg
[4] = cited from earlier work
[5] = tested on: Colau.C35 tumor cells; experiment: Combination radioimmunotherapy and chemotherapy, second experiment (FIG. 6, Table 6); type: in vivo, Swiss nude mice
Description: Swiss nude mice were grafted with Colau.C35 cells on day 0. Chemotherapy: Cisplatin administered at 2 mg/kg i.v. on days 15 & 18; 5FU/LV administered at 180/120 mg/kg i.v. on day 18.
Cispaltin was administered on days 15 and 18 following tumor graft. […] Tumor growth was followed for up to 10 weeks.

[6] = 14 μg/ml peptide coated plates, 100 ng/ml primary antibody
[7] = 40 μg/ml peptide coated plates, 1 μg/ml primary antibody
[8] = literature values, schedule as in table
[9] = non-toxic dose at indicated schedule (dose of column Dose + RIT)

| Molecule | Absorbance @ 450-570 nm [2, 6] | Absorbance @ 450-570 nm [2, 7] | other results |
| --- | --- | --- | --- |
| CO[C@@]12[C@H](COC(N)=O)C3=C(C(=O)C(C)=C(N)C3=O)N1C[C@@H]1N[C@@H]12 [mitomycin C] |  |  | C35 surface staining of treated cells undergoing apoptosis ([1]; 6 ug/ml, 48 hours, PI negative, Annexin V positive cells): clearly differentially stained with anti-C35 antibodies as compared to isotype control antibody |
| GEPGQTSVAPPPEEV [P3] | 1.458 | 3.349 |  |
| PEEVEPGSGVRIVVE [P14] | 0.127 | 0.972 |  |
| SNGETLEKITNSRPP [P97] | 0.046 | 0.373 |  |
| TSVAPPPEEVEPGSG [P8] | 0.059 | 0.394 |  |
| PPPEEVEPGSGVRIV [P12] | 0.836 |  |  |
| QTSVAPPPEEVEPGS [P7] | 2.635 | 3.388 |  |
| EEVEPGSGVRIVVEY [P15] | 0.039 | 0.334 |  |
| VAPPPEEVEPGSGVR [P10] | 1.736 | 3.407 |  |
| GFPYEKDLIEAIRRA [P82] | 0.02 | 0.18 |  |
| FPYEKDLIEAIRRAS [P83] | 0.025 | 0.19 |  |
| EIEINGQLVFSKLEN [P66] | 0.028 | 0.182 |  |
| AFEIEINGQLVFSKL [P64] | 0.055 | 0.423 |  |
| ETLEKITNSRPPAVI [P100] | 0.017 | 0.124 |  |
| IEAIRRASNGETLEK [P90] | 0.04 | 0.403 |  |
| APPPEEVEPGSGVRI [P11] | 1.526 | 3.317 |  |
| TLEKITNSRPPAVIL [P101] | 0.472 | 2.519 |  |
| AIRRASNGETLEKIT [P92] | 0.04 | 0.267 |  |
| GETLEKITNSRPPAV [P99] | 0.026 | 0.18 |  |
| GGFPYEKDLIEAIRR [P81] | 0.032 | 0.204 |  |
| EPGQTSVAPPPEEVE [P4] | 1.254 | 3.282 |  |
| RASNGETLEKITNSR [P95] | 0.062 | 0.462 |  |
| IRRASNGETLEKITN [P93] | 0.051 | 0.389 |  |
| SGEPGQTSVAPPPEE [P2] | 0.108 | 1.227 |  |

| Molecule | Absorbance @ 450-570 nm [2, 6] | Absorbance @ 450-570 nm [2, 7] | other results |
| --- | --- | --- | --- |
| O=c1[nH]cc(F)c(=O)[nH]1 [5-FluoroUracil] |  |  | MTD [3]: 180 mg/kg |
| TGAFEIEINGQLVFS [P62] | 0.023 | 0.107 |  |
| O=C1[O][Pt]2([NH][C@@H]3CCCC[C@H]3[NH]2)[O]C1=O [Oxaliplatin] |  |  | Maximum Tolerated Dose [4, 8]: 5 mg/kg |
| GAFEIEINGQLVFSK [P63] | 0.079 | 0.557 |  |
| FEIEINGQLVFSKLE [P65] | 0.043 | 0.269 |  |
| PPEEVEPGSGVRIVV [P13] | 0.385 | 2.522 |  |
| O=P1(N(CCCl)CCCl)NCCCO1 (centres unmarked) [Cyclophosphamide] |  |  | Maximum Tolerated Dose [4, 9]: No toxicity ^2 |
| MSGEPGQTSVAPPPE [P1] | 0.257 |  |  |
| GQTSVAPPPEEVEPG [P6] | 2.483 | 3.381 |  |
| NGETLEKITNSRPPA [P98] | 0.035 | 0.213 |  |
| N.N.[Cl][Pt][Cl] [Cisplatin] |  |  | TDD = Tumor doubling delay ([5]; T − C/tumor volume doubling time of untreated): 0.66; LCK = Log Cell Kill ([5]; TDD/3.32): 0.20; Colau.C35 tumor growth (FIG. 6) ([5]; cisplatin 2 mg/kg days 15, 18, 5FU/LV 180/120 mg/kg day 18, 300 μCi ^131I-1B3 day 21): some inhibition; T − C: difference in time for treated and control tumors to reach a given volume ([5]; volume 1200 mm^3): 5 days; Maximum Tolerated Dose [4, 8]: 4 mg/kg |
| RRASNGETLEKITNS [P94] | 0.061 | 0.526 |  |
| Nc1ccn([C@@H]2O[C@H](CO)[C@@H](O)C2(F)F)c(=O)n1 [Gemcitabine] |  |  | Maximum Tolerated Dose [4, 9]: No toxicity ^5 |
| YEKDLIEAIRRASNG [P85] | 0.024 | 0.179 |  |
| DLIEAIRRASNGETL [P88] | 0.025 | 0.135 |  |
| EAIRRASNGETLEKI [P91] | 0.023 | 0.144 |  |
| PYEKDLIEAIRRASN [P84] | 0.037 | 0.391 |  |
| PGQTSVAPPPEEVEP [P5] | 2.719 | 3.383 |  |
| SVAPPPEEVEPGSGV [P9] | 2.31 | 3.367 |  |
| EVEPGSGVRIVVEYA [P16] | 0.027 | 0.172 |  |
| NGGFPYEKDLIEAIR [P80] | 0.018 | 0.1 |  |
| EKDLIEAIRRASNGE [P86] | 0.023 | 0.166 |  |
| CC(=O)O[C@H]1C(=O)[C@@]2(C)[C@H]([C@H](OC(=O)c3ccccc3)[C@]3(O)C[C@H](OC(=O)[C@H](O)[C@@H](NC(=O)c4ccccc4)c4ccccc4)C(C)=C1C3(C)C)[C@]1(OC(C)=O)CO[C@@H]1C[C@@H]2O [Taxol, paclitaxel] |  |  | induction of apoptosis and C35 surface exposure ([1]; 0.5 uM, 24 hours, stained with 1F2): induces apoptosis, resulting in exposure of C35 on the surface of apoptotic tumor cells; Maximum Tolerated Dose [4, 9]: No toxicity ^2 |
| LIEAIRRASNGETLE [P89] | 0.015 | 0.053 |  |
